The values that follow come from patent US9889105B2, “In vivo method for treating, inhibiting, and/or prophylaxis of cancer, such as pancreatic cancer” (U.S. Department of Veterans Affairs, priority 2010, dated 2018).

The structures appear in SMILES notation.

One series deals with PCNA. The series can be described thus: PCNA histochemical analysis of xenograft tumor tissue. In kind it is in vivo, athymic (nude) mice. The settings on record: versus untreated. Here is the method: FIG. 6A illustrates expression of PCNA (proliferating cell nuclear antigen). Cell proliferation in tumor tissues, obtained from athymic mice as depicted in FIG. 5, was evaluated by staining for PCNA using histochemical analysis.
Immunohistochemical analysis was performed according to our previous described method (27) using Zymed broad range immunohistochemical kits (Zymed Laboratories, CA). Tumor tissue samples were fixed in 4% buffered formalin and embedded in paraffin. The serial sections of 5 μm were cut. The tissue sections were deparaffinized and were hydrated in different concentrations of ethanol (i.e. 100%, 90%, 70%, and 50%). Endogenous peroxidase activity was blocked at room temperature by incubating in hydrogen peroxide in methanol (1:9). Slides were washed with PBS (phosphate buffered saline) and nonspecific binding was blocked by blocking solution for 10 min. The sections were incubated with respective primary antibody in a humidified chamber at 4° C. overnight. The tissues were incubated with biotynylated secondary antibody (Zymed kit). The slides were then incubated with HRP (horseradish peroxidase) linked enzyme conjugate for 10 min. Positive reactions were visualized by incubating slides with stable 3,3′-diaminobenzidine (DAB) solution (Zymed kit) and counterstained with haematoxylin. The slides were dehydrated and mounted in permount for microscopic examination.

Series [1] relates to MIA-PaCa-2 xenograft tumor. The series can be described thus: Apoptosis in xenograft tumors (cleaved caspase 3, TUNEL, Bax/Bcl-2). In kind it is in vivo, athymic (nude) mice. To be noted: daily treatment, versus vehicle. As to the method:
FIG. 6C illustrates apoptosis. Top, tumor tissues were processed for Cleaved Caspase 3 immunohistochemistry. […] Caspase 3, Bax and Bcl-2 (middle) expressions of pancreatic tumors from same crocetinic acid-treated and control animals using Western Blot were carried out and Bax/Bcl-2 ratio was also determined (bottom). Columns, mean from six different animals; bars, SD (B and C). *, P<0.05; **, P<0.001 versus untreated control (Student's t test);
To explore whether the regression of tumor growth by crocetin is due to inhibition of proliferation, apoptotic cell death or both, we first evaluated PCNA (proliferating cell nuclear antigen) expression and then EGFR expression in tumors using histochemical analysis. […] Next, apoptosis by TUNEL assay was investigated in the tumors of mice treated with or without crocetin.

A further series concerns pancreatic cancer cells. Briefly: Cytotoxicity against pancreatic cancer cells. To be noted: dose- and time-dependent. In kind it is cell-based. Here is the method: The human pancreatic adenocarcinoma cell lines MIA-PaCa-2, BxPC3, Capan-1 and ASPC-1 were obtained from the American Type Culture Collection (ATCC, Manassas, Va., USA) and grown in Dulbecco's modified Eagles medium (DMEM, Sigma Chemical Co, St Louis, Mo.) supplemented with 1 mM sodium pyruvate (Fisher Chemical Company), 100 U/ml of penicillin and 100 U/ml of streptomycin (Sigma Chemical Co, St Louis, Mo.) and 10% FBS (Hyclone, Road Logan, Utah) at 37° C. in a humidified tissue culture incubator containing 5% CO2 and 95% air. ˜70% confluent cells were treated with different concentrations (1-50 μM) of purified crocetinic acid and commercial crocetin for 72 h.

Series [2] relates to pancreatic CSCs (pancospheres). The series can be described thus: Pancospheroid formation assay. In kind it is cell-based. The settings on record: dose dependent, 0, 1, 5, 10, 20 μM. As to the method: FIG. 7C illustrates spheroid formation assay. Stemness pancreatic cancer cells ware determined using spheroid assay in PC versus CC in different concentrations (0, 1, 5, 10, 20 μM); and
Spheroids were prepared as previously described (Reference 17). Briefly, 1000 cells/well in DMEM/F12 (Invitrogen, France) supplemented with EGF (20 ng/ml, Invitrogen) and B27 (1×, Invitrogen) were distributed in ultra-low attachment plates 6 well plates. Plates were placed in a humidified atmosphere of 5% CO2 at 37° C. Numbers of pancosphers formation, after 6-8 days culture, were counted under a light microscopy and quantified by Celigo software.

The subject of the next series is BxPc3 cells. Briefly: Proliferation assay in BxPC3 cells. To be noted: comparison to commercial crocetin. Format: cell-based, human. Here is the method:
(§1) Pancreatic cancer cells were plated at desired density onto 96-well corning tissue culture plates. After 24 hours, cells were treated for 72 hours with different concentrations (1-50 μM) of purified crocetin and crude/commercial crocetin. Cells were labelled with Click-it EdU and were fixed. Then fixed cells were incubated with anti-Oregon Green antibody conjugated to horseradish peroxidase and measured flurescent product (excitation/emission˜568/585).

The next series relates to human cells. The settings on record: cited from earlier work.
The test system of the next series is Bax/Bcl-2. The series can be described thus: Western blot of Bax/Bcl-2 in Panc-1 cells. Format: cell-based, human. The settings on record: Panc-1, Western blot. Here is the method:
FIG. 4B illustrates effect of purified crocetin (PC) and crude crocetin (CC) on EGFR (epidermal growth factor receptor), Akt signaling and Bax/Bcl-2 on Panc-1 cells.
The immuno-Western blot analyses were the same as described earlier by Banerjee et al. (Reference 26). Briefly, MIA-PaCa-2 and BxPC-3 cells following treatment with or without crocetin and tumor samples were homogenized. Then, both cell and tumor lysates were spun at 18000 g for 1 hr at 4° C., and the supernatants were collected for immunodetection. Protein concentration was measured by using the Comassie blue reagent assay (Pierce, Rockford, Ill.). Equal amount of protein were resolved in 10% SDS-PAGE, transferred onto nitrocellulose membranes. Membranes were blocked with super block (Pierce, Rockford, Ill.) followed by incubation with appropriate primary antibodies at 4° C., overnight. The antigen-antibody reactions were detected with HRP-conjugated anti-rabbit or anti-mouse IgG for one hour in room temperature. Immunoreactions were visualized by the ECL ([…]) chemiluminescence reagent kit (Pierce, Rockford, Ill.) and relative expression of proteins were calculated by densitometric analyses using ID image Analysis Software version 3.6 (Eastman Kodak Company, Rochester, N.Y.).
On the technique in general: Immunoblotting shows a protein as a band on a membrane.

In a further series the test system is Panc-1 cells. The series can be described thus: Click-it EdU microplate proliferation assay. In kind it is cell-based, human. To be noted: for potency in proliferation assay relative to crude crocetin: Panc-1, 48-72 hours, versus CC; for inhibiting proliferation: Panc-1 cells. As to the method: as §1
[…] We have also used higher doses (25, 50 and 100 μM) in this experiment and it needs about 50-100 concentration of CC for inhibition of proliferation and increase of apoptosis at the level of 1 and 10 μm of PC. Treated cells were then labeled with Brdu and cells were assayed by Invitrogen Click-it Edu fluorimetric microplate proliferation kit and apoptosis assay kit.

Regarding `CC(C=CC=C(C)C(=O)O)=CC=CC=C(C)C=CC=C(C)C(=O)O` [crocetinic acid], the “PCNA expression in tumors” value in the series on PCNA is “significantly decreased”. Further, the “apoptosis by cleaved caspase 3 immunohistochemistry in tumors” value in series [1] is “Increased apoptosis”. In addition, in the series on pancreatic cancer cells, the cytotoxicity entry is listed as “significant cytotoxicity”. For the same compound, the figures for the “number and size of primary and secondary pancospheres (spheroid formation)” value in series [2] and in series [2] (listed as #5) were “decreased” and “significant inhibition”, respectively. Also, the inhibition of proliferation result with BxPc3 cells was “significantly inhibited”. Also, the “toxicity to human cells” value with human cells is “relatively nontoxic”. Further, the Bax/Bcl-2 ratio entry with Bax/Bcl-2 was “increase”. In the series on Bax/Bcl-2, the Bcl-2 entry is reported as “decrease”. The inhibition in proliferation result in the series with Panc-1 cells (1 µM, compared with CC) was “highly potent inhibition”. The “potency in proliferation assay relative to crude crocetin” value with Panc-1 cells (listed as #5) is reported as 50 times; in the series with Panc-1 cells (listed as PC), 50 times; in the series with Panc-1 cells (listed as purified crocetin), “about 50 times”. The inhibiting proliferation result is on record as “significantly inhibited” in the series with Panc-1 cells and “promising effect” in the series on Panc-1 cells (listed as #5).
